Key:
[1] = Brain protein binding (BPB); type: in vitro ADME
Source text: As pretargeting is a 2-component system, an ^18F-Tz was developed to be CNS-penetrant based on cnsPET-MPO modeling (Zhang, L., et al. (2018). J Med Chem 61(8): 3296-3308).

[2] = Dynamic PET scans of brain, baseline, homologous block and pretargeted; type: in vivo, rat
Procedure: Dynamic PET scans were performed with arterial sampling to determine parent fraction of the tracer ^18F-537-Tz in baseline and pretargeted scans. Baseline imaging with a comparison to a homologous block with non-radioactive compound ^19F-537-Tz at 1 mg/kg was performed on a single rat, where non-radioactive compound was administered i.v. 5 min before injection of tracer. Next, three additional rats were imaged at baseline with no ASO-TCO administered. A final three rats received pretargeted scans and were dosed intrathecally with 0.56 mg Malat1 ASO-TCO in 30 μL saline followed by a 40 μL saline flush. 24 h after injection of the ASO, ^18F-537-Tz was injected intravenously and dynamic PET imaging performed.
Time-activity-curves (TAC) from 0 to 60 min showing the brain subregion distribution of ^18F-537-Tz in rat 2 at baseline and following iv administration of 1 mg/kg of unlabeled […] are illustrated in FIG. 9. […] The average brain regional SUV from 40-60 min of the scans were similar in the baseline and homologous block scans (Table 1).
PET/CT images with summed radioactivity from 0 to 60 min showing the brain distribution of ^18F-537-Tz in the 4 rats scanned at baseline and the 3 rats scanned 24 h after i.t. administration of ASO-TCO are illustrated in FIG. 10. There was an increase in brain uptake of radioactivity observed in all the ASO-TCO dosed rats. There was an increase of ca. […]

[3] = Static PET/CT of upper spine and CSF; type: in vivo, rat
Source text: The static PET/CT images of ^18F-537-Tz uptake in the upper rat spine are illustrated in FIG. 12. […] There was a 10% and 15% increase in the radioactivity uptake in the spine and CSF when comparing the baseline and post ASO-TCO dosed rats (Table 4).

[4] = Parent fraction and blood kinetics of tracer in arterial plasma in NHP; type: in vivo, cynomolgus monkey
Procedure: (§1) Dynamic PET scans (0-120 min) with arterial input function were performed on a female cynomolgous monkey using ^18F-537-Tz (5.7±0.7 mCi, 0.14±0.12 μg) in order to evaluate the tracer's efficacy in non-human primates. Parent fraction of tracer in arterial plasma was determined by extracting tracer using acetonitrile and analysis by radioHPLC. Baseline scans were performed first, measuring tracer kinetics in the brain. Malat1 ASO-TCO (20 mg in 2.4 mL aCSF) was then injected intrathecally under fluoroscopic guidance and ^18F-537-Tz PET/CT imaging performed at 24 h and 168 h under isoflurane anesthesia. Imaging data were co-registered to a cyno brain atlas, and TAC in subregions of interest were derived from them. Static PET/CT scans were acquired in each imaging session, with the field of view (FOV) oriented to capture the spine. This scan took place 130-160 min p.i. of tracer, and an ROI drawn over the spinal cord with muscle as a reference region.

[5] = Static PET/CT of spine in NHP, spinal cord ROI with muscle as reference; type: in vivo; details: cynomolgus monkey, 24 h post-ASO scan
Procedure: as §1

[6] = rat Subject 2, Baseline scan, 40-60 min p.i. of tracer
[7] = rat Subject 2, Postdose (homologous block, 1 mg/kg non-radioactive compound i.v. 5 min before tracer), 40-60 min p.i.
[8] = rats, Baseline group (no ASO-TCO), 40-60 min p.i. of tracer
[9] = rats, Baseline group, 40-60 min p.i. of tracer
[10] = rats, Pretargeted group (0.56 mg Malat1 ASO-TCO i.t. 24 h before tracer), 40-60 min p.i.
[11] = rats, Pretargeted group (Malat1 ASO-TCO i.t. 24 h before tracer), 40-60 min p.i.
[12] = rats, Pretargeted vs Baseline, 40-60 min p.i.
[13] = baseline vs post ASO-TCO dosed rats
[14] = rats, Baseline group, ca. 70-80 min after tracer injection

In the case of `O=C(Cc1ccc(-c2nncnn2)cc1)NCC[18F]` [Compound 1], the “BPB (rat) unbound” value [1] is reported as 51%, the “SUV Plasma (40-60 min)” value ([2]; rat Subject 2, Baseline scan) is reported as 1.12 and the “SUV Brain” value [2, 6] is reported as 1.29. For the same molecule, the “SUV Cerebellum” value [2, 6] was 1.38, the “SUV Cortex” value [2, 6] was 1.07 and the “SUV Frontal Cortex” value [2, 6] was 1.16. For the same molecule, the “SUV Hippocampus” value [2, 6] was 1.28, the “SUV Hypothalamus” value [2, 6] was 1.45 and the “SUV Thalamus” value [2, 6] was 1.46. For the same molecule, the “SUV Plasma (40-60 min)” value ([2]; rat Subject 2, Postdose (homologous block, 1 mg/kg non-radioactive compound i.v. 5 min before tracer)) was 1.45, the “SUV Brain” value [2, 7] was 1.22 and the “SUV Cerebellum” value [2, 7] was 1.38. For the same molecule, the “SUV Cortex” value [2, 7] was 1.10, the “SUV Frontal Cortex” value [2, 7] was 1.24 and the “SUV Striatum” value [2, 7] was 1.40. The “SUV Thalamus” value [2, 7] was 1.52, the “SUV Hippocampus” value ([2]; rat, in vivo) was 1.43 and the “SUV Striatum” value ([2]; rat, in vivo) was 1.42. The “SUV Hippocampus” value ([2]; rat, in vivo, iv, 1 mg/kg) was 1.27, the “SUV Hypothalamus” value ([2]; rat, in vivo, iv, 1 mg/kg) was 1.43 and the “SUV Cerebellum” value [2, 8] was 1.52. The “SUV Cortex” value [2, 8] was 1.25, the “SUV Frontal Cortex” value [2, 8] was 1.33 and the “SUV Hypothalamus” value [2, 8] was 1.62. The “SUV Plasma” value [2, 8] was 1.22, the “SUV Striatum” value [2, 8] was 1.52 and the “SUV Thalamus” value [2, 8] was 1.64. For the same molecule, the “SUV Whole Brain” value [2, 8] was 1.45, the “SUV normalized to plasma, Cerebellum” value [2, 9] was 1.27 and the “SUV normalized to plasma, Cortex” value [2, 9] was 1.05. The “SUV normalized to plasma, Frontal Cortex” value [2, 9] was 1.11, the “SUV normalized to plasma, Hippocampus” value [2, 9] was 1.2 and the “SUV normalized to plasma, Hypothalamus” value [2, 9] was 1.36. The “SUV normalized to plasma, Striatum” value [2, 9] was 1.27, the “SUV normalized to plasma, Thalamus” value [2, 9] was 1.37 and the “SUV normalized to plasma, Whole Brain” value [2, 9] was 1.21. For the same molecule, the “SUV Cerebellum” value [2, 10] was 1.9, the “SUV Cortex” value [2, 10] was 1.66 and the “SUV Frontal Cortex” value [2, 10] was 1.66. The “SUV Hippocampus” value [2, 10] was 1.85, the “SUV Hypothalamus” value [2, 10] was 1.89 and the “SUV Plasma” value [2, 10] was 1.18. The “SUV Striatum” value [2, 10] was 1.77, the “SUV Thalamus” value [2, 10] was 1.95 and the “SUV Whole Brain” value [2, 10] was 1.79. For the same molecule, the “SUV normalized to plasma, Cerebellum” value [2, 11] was 1.67, the “SUV normalized to plasma, Cortex” value [2, 11] was 1.42 and the “SUV normalized to plasma, Frontal Cortex” value [2, 11] was 1.43. The “SUV normalized to plasma, Hippocampus” value [2, 11] was 1.61, the “SUV normalized to plasma, Hypothalamus” value [2, 11] was 1.63 and the “SUV normalized to plasma, Striatum” value [2, 11] was 1.47. For the same molecule, the “SUV normalized to plasma, Thalamus” value [2, 11] was 1.61, the “SUV normalized to plasma, Whole Brain” value [2, 11] was 1.53 and the “% Change of SUV normalized to plasma, Cerebellum” value ([2]; rats, Pretargeted vs Baseline) was 31%. For the same molecule, the “% Change of SUV normalized to plasma, Cortex” value ([2]; rats, Pretargeted vs Baseline) was 35%, the “% Change of SUV normalized to plasma, Frontal Cortex” value ([2]; rats, Pretargeted vs Baseline) was 29% and the “% Change of SUV normalized to plasma, Hippocampus” value ([2]; rats, Pretargeted vs Baseline) was 34%. For the same molecule, the “% Change of SUV normalized to plasma, Hypothalamus” value ([2]; rats, Pretargeted vs Baseline) was 20%, the “% Change of SUV normalized to plasma, Striatum” value ([2]; rats, Pretargeted vs Baseline) was 16% and the “% Change of SUV normalized to plasma, Thalamus” value ([2]; rats, Pretargeted vs Baseline) was 18%. For the same molecule, the “% Change of SUV normalized to plasma, Whole Brain” value ([2]; rats, Pretargeted vs Baseline) was 26%, the “% Change of SUV Cerebellum” value [2, 12] was 25% and the “% Change of SUV Cortex” value [2, 12] was 33%. The “% Change of SUV Frontal Cortex” value [2, 12] was 25%, the “% Change of SUV Hippocampus” value [2, 12] was 29% and the “% Change of SUV Hypothalamus” value [2, 12] was 17%. The “% Change of SUV Striatum” value [2, 12] was 16%, the “% Change of SUV Thalamus” value [2, 12] was 19% and the “% Change of SUV Whole Brain” value [2, 12] was 23%. The “brain entry of tracer” value ([2]; rats, highest uptake in thalamus/hypothalamus, lowest in cortical regions) was “readily entered the brain”, the “increase in radioactivity uptake in the CSF” value [3, 13] was 15% and the “increase in radioactivity uptake in the spine” value [3, 13] was 10%. For the same molecule, the “Radioactivity uptake CSF” value [3, 14] was 1.18, the “Radioactivity uptake Spine” value [3, 14] was 0.95 and the “Radioactivity uptake Spine” value ([3]; rats, Pretargeted group (i.t. dosing of ASO-TCO), ca. 70-80 min after tracer injection) was 1.04. The “% Change of radioactivity uptake CSF” value ([3]; rats, Pretargeted vs Baseline) was 16%, the “% Change of radioactivity uptake Spine” value ([3]; rats, Pretargeted vs Baseline) was 9% and the “Parent fraction, tracer intact” value ([4]; cynomolgus monkey arterial plasma, over the course of imaging) was > 80%. For the same molecule, the “Blood kinetics of the tracer” value ([4]; cynomolgus monkey, over 30 min) was “uptake and rapid clearance” and the “spinal cord SUV normalized to muscle, higher signal than baseline scan” value [5] was ~25%.

Reference: patent publication US20220290140A1, “TRANS-CYCLOOCTENE LABELED ANTISENSE OLIGONUCLEOTIDES, RADIO LABELED TETRAZINE AND METHODS” (Biogen MA Inc., priority 2019, published 2022)
